Data: patent US20250188038A1, “CRYSTALLINE FORMS OF N-{[(S)-{[3-(4-CHLOROPHENYL)-4-PHENYL-4,5-DIHYDRO-1H-PYRAZOL-1-YL][4-(TRIFLUOROMETHYL)BENZENE” (Novo Nordisk A/S, priority 2022, published 2025)
Converted amounts (≈) assume the structure as drawn. “Also recorded” adds a separate entry of the source.

Key:
Assay type in all cases: physicochemical
[1] = Approximate solubility of Form A in 20 single solvents at RT; conditions: thermodynamic from solid
Description: Approximate solubility of Form A was determined in 20 single solvents at RT, respectively. Approximately 2 mg of Form A was added into a 3-mL glass vial. Corresponding solvents were added stepwise (50 μL-50 μL-200 μL-700 μL) into the vials until the solids were dissolved visually or a total volume of 1 mL was reached. The ranges of approximate solubility were calculated according to the mass of sample, volume of solvent and observation. The results summarized in Table 2 were used to guide the solvent selection in polymorph screening.

[2] = Slurry competition of the six anhydrates in n-butanol (thermodynamic assessment); conditions: all anhydrates in equal mass ratios, RT and 50° C.
Description: A total of six anhydrates, Forms A, C, D, E, N, and Q were observed. A thermodynamic assessment of all anhydrates was performed by slurrying all anhydrates in equal mass ratios in a non-solvating solvent, n-Butanol, at RT and 50° C.

[3] = Slurry competition of Form K and Form C at various water activities (critical water activity); conditions: for Relative stability, Form K vs Form C slurry: EtOH/H2O
Description: One hydrate (Form K) was observed and found to be a hemi-hydrate. […] It was suspected that EtOH may be forming a solvate that favors the formation of Form K because at higher water activities, the hydrate should be more thermodynamically stable. The values and results for obtaining the critical water activity follows the laws of thermodynamics and the results obtained from this experiment can be transferred to another solvent/H2O system. Additional critical water activity experiments were performed in acetone/H2O at Aw=0.5 and 0.9 using Form K and Form C.

[4] = Ambient drying of wet cake solids, form followed by XRPD
Description: Form A obtained from anti-solvent addition in ACN/H2O was further investigated by analyzing the wet solids by XRPD. The sample was covered with 3511 Kapton film to minimize the solvent evaporation from the wet cake. A unique pattern, different from Form A was observed indicating a labile solvate phase forms in this solvent system.
Form B was obtained by temperature cycling in IPA. The formation of Form B was also observed in IPA slurry at RT and 60° C. Form B was further characterized by analyzing the wet cake by XRPD. The sample on the XRPD sample holder was covered by 3511 Kapton Film to minimize the solvent evaporation from the sample. […] Comparing the KF and TGA results, it was concluded that Form B is an IPA solvate, more specifically, a hemi-solvate determined by calculating the API:Solvent stoichiometry from the TGA weight loss to be 1:0.6.
(§1) Form D was obtained by temperature cycling in toluene. The formation of Form D was also observed in 60° C. slurry and slow cooling using toluene. Form D was further characterized by analyzing the wet solids by XRPD. The sample on the XRPD sample holder was covered by 3511 Kapton Film to minimize the solvent evaporation from the sample. […] The minimal weight loss observed indicated an anhydrous phase.
as §1, with “Form E” for “Form D”, “in IPAc/MTBE (1:3 v/v).” for “in toluene.”, “in anti-solvent addition, crash cooling, and” for “in 60° C.”, “slurry at RT experiments” for “slurry and slow cooling”, “using MTBE, 2-MeTHF, or” for “using”
Form F was obtained by temperature cycling in THF/H2O (0.92/0.08 v/v Aw=0.2). The formation of Form F was also observed in RT slurry in THF/H2O at Aw=0.4 and 0.6, and in temperature cycling in THF/H2O (1:3). Form F was further characterized by analyzing the wet solids by XRPD. The sample on the XRPD sample holder was covered by 3511 Kapton film to minimize the solvent evaporation. […] Comparing the KF and TGA results, it was concluded that Form F is likely a THF solvate.

CC(=O)N/C(N)=N/C(=N\S(=O)(=O)c1ccc(C(F)(F)F)cc1)N1C[C@H](c2ccccc2)C(c2ccc(Cl)cc2)=N1 [Form A, N-{[(S)-{[3-(4-chlorophenyl)-4-phenyl-4,5-dihydro-1H-pyrazol-1-yl][4-(trifluoromethyl)benzenesulfonamido]methylidene}amino]methanimidoyl}acetamide]
solubility ([1]; Anisole, organic solvent or mixture): > 10000 µg/mL
solubility ([1]; EtOH, organic solvent or mixture): > 10000 µg/mL
solubility ([1]; IPA, organic solvent or mixture): < 3000 µg/mL
solubility ([1]; MTBE, organic solvent or mixture): < 3000 µg/mL
solubility ([1]; Toluene, organic solvent or mixture): 2000 to 10000 µg/mL (≈ 3.38 to 16.9 mM)
solubility ([1]; Water): < 3000 µg/mL
solubility ([1]; n-heptane, organic solvent or mixture): < 3000 µg/mL
Relative thermodynamic stability of anhydrates (outcome of slurry competition) [2]: conversion of all anhydrates to Form C

CC(=O)N/C(N)=N/C(=N\S(=O)(=O)c1ccc(C(F)(F)F)cc1)N1C[C@H](c2ccccc2)C(c2ccc(Cl)cc2)=N1 [Form C, N-{[(S)-{[3-(4-chlorophenyl)-4-phenyl-4,5-dihydro-1H-pyrazol-1-yl][4-(trifluoromethyl)benzenesulfonamido]methylidene}amino]methanimidoyl}acetamide]
Relative stability, Form K vs Form C slurry ([3]; Aw>0.9, equal mass ratios): more stable
Relative thermodynamic stability of anhydrates (outcome of slurry competition) [2]: thermodynamically most stable anhydrous form; also recorded: most stable anhydrate

CC(=O)N/C(N)=N/C(=N\S(=O)(=O)c1ccc(C(F)(F)F)cc1)N1C[C@H](c2ccccc2)C(c2ccc(Cl)cc2)=N1 [Form D, N-{[(S)-{[3-(4-chlorophenyl)-4-phenyl-4,5-dihydro-1H-pyrazol-1-yl][4-(trifluoromethyl)benzenesulfonamido]methylidene}amino]methanimidoyl}acetamide]
Relative thermodynamic stability of anhydrates (outcome of slurry competition) [2]: conversion of all anhydrates to Form C

CC(=O)N/C(N)=N/C(=N\S(=O)(=O)c1ccc(C(F)(F)F)cc1)N1C[C@H](c2ccccc2)C(c2ccc(Cl)cc2)=N1 [Form E, N-{[(S)-{[3-(4-chlorophenyl)-4-phenyl-4,5-dihydro-1H-pyrazol-1-yl][4-(trifluoromethyl)benzenesulfonamido]methylidene}amino]methanimidoyl}acetamide]
Relative thermodynamic stability of anhydrates (outcome of slurry competition) [2]: conversion of all anhydrates to Form C

CC(=O)N/C(N)=N/C(=N\S(=O)(=O)c1ccc(C(F)(F)F)cc1)N1C[C@H](c2ccccc2)C(c2ccc(Cl)cc2)=N1 [Form G, N-{[(S)-{[3-(4-chlorophenyl)-4-phenyl-4,5-dihydro-1H-pyrazol-1-yl][4-(trifluoromethyl)benzenesulfonamido]methylidene}amino]methanimidoyl}acetamide]
Solid form conversion upon ambient drying [4]: converted to Form F

CC(=O)N/C(N)=N/C(=N\S(=O)(=O)c1ccc(C(F)(F)F)cc1)N1C[C@H](c2ccccc2)C(c2ccc(Cl)cc2)=N1 [Form H, N-{[(S)-{[3-(4-chlorophenyl)-4-phenyl-4,5-dihydro-1H-pyrazol-1-yl][4-(trifluoromethyl)benzenesulfonamido]methylidene}amino]methanimidoyl}acetamide]
Solid form conversion upon ambient drying [4]: converted to Form D

CC(=O)N/C(N)=N/C(=N\S(=O)(=O)c1ccc(C(F)(F)F)cc1)N1C[C@H](c2ccccc2)C(c2ccc(Cl)cc2)=N1 [Form I, N-{[(S)-{[3-(4-chlorophenyl)-4-phenyl-4,5-dihydro-1H-pyrazol-1-yl][4-(trifluoromethyl)benzenesulfonamido]methylidene}amino]methanimidoyl}acetamide]
Solid form conversion upon ambient drying [4]: converted to Form B

CC(=O)N/C(N)=N/C(=N\S(=O)(=O)c1ccc(C(F)(F)F)cc1)N1C[C@H](c2ccccc2)C(c2ccc(Cl)cc2)=N1 [Form K, N-{[(S)-{[3-(4-chlorophenyl)-4-phenyl-4,5-dihydro-1H-pyrazol-1-yl][4-(trifluoromethyl)benzenesulfonamido]methylidene}amino]methanimidoyl}acetamide]
Stability of the hydrate (conclusion of critical water activity experiments) [3]: not a stable hydrate
Relative stability, Form K vs Form C slurry ([3]; 0.1<Aw<0.9, equal mass ratios): more stable
Outcome of Form K and Form C slurry ([3]; acetone/H2O, Aw=0.5 and 0.9): conversion to Form C

CC(=O)N/C(N)=N/C(=N\S(=O)(=O)c1ccc(C(F)(F)F)cc1)N1C[C@H](c2ccccc2)C(c2ccc(Cl)cc2)=N1 [Form N, N-{[(S)-{[3-(4-chlorophenyl)-4-phenyl-4,5-dihydro-1H-pyrazol-1-yl][4-(trifluoromethyl)benzenesulfonamido]methylidene}amino]methanimidoyl}acetamide]
Relative thermodynamic stability of anhydrates (outcome of slurry competition) [2]: conversion of all anhydrates to Form C

CC(=O)N/C(N)=N/C(=N\S(=O)(=O)c1ccc(C(F)(F)F)cc1)N1C[C@H](c2ccccc2)C(c2ccc(Cl)cc2)=N1 [Form P, N-{[(S)-{[3-(4-chlorophenyl)-4-phenyl-4,5-dihydro-1H-pyrazol-1-yl][4-(trifluoromethyl)benzenesulfonamido]methylidene}amino]methanimidoyl}acetamide]
Solid form conversion upon ambient drying [4]: converted to Form E

CC(=O)N/C(N)=N/C(=N\S(=O)(=O)c1ccc(C(F)(F)F)cc1)N1C[C@H](c2ccccc2)C(c2ccc(Cl)cc2)=N1 [Form Q, N-{[(S)-{[3-(4-chlorophenyl)-4-phenyl-4,5-dihydro-1H-pyrazol-1-yl][4-(trifluoromethyl)benzenesulfonamido]methylidene}amino]methanimidoyl}acetamide]
Relative thermodynamic stability of anhydrates (outcome of slurry competition) [2]: conversion of all anhydrates to Form C
